Results taken from ChEMBL document CHEMBL1135052, “7-Methoxyfuro[2,3-c]pyridine-4-carboxamides as PDE4 inhibitors: a potential treatment for asthma” (Bioorg Med Chem Lett, 2002).
Values belong to the compound of their own block, whether it stands above or below them. The source made the active and inactive calls.

How the values were obtained:
[1] = target: T1, Phosphodiesterase 4 (Homo sapiens, UniProt P27815+Q08499+Q07343+Q08493); assay: (§1) Inhibition of human phosphodiesterase 4 from U937 cells; format: cell-based; details: u-937
[2] = target: T2, Phosphodiesterase 3 (Homo sapiens) (UniProt Q14432+Q13370); assay: Inhibition of human platelet phosphodiesterase 3 at 1 uM
[3] = target: T2, Phosphodiesterase 3 (Homo sapiens); assay: Inhibition of human platelet Phosphodiesterase 3 at 1 uM (inactive)
[4] = target: T2, Phosphodiesterase 3 (Homo sapiens); assay: Inhibition of human platelet Phosphodiesterase 3 at 20 uM (inactive)
[5] = target: T1, Phosphodiesterase 4; assay: as §1; format: cell-based; details: U-937, concentration not given here
[6] = target: T2, Phosphodiesterase 3 (Homo sapiens); assay: Inhibition of human platelet Phosphodiesterase 3 at 20 uM
[7] = target: Phosphodiesterase 4 (Rattus norvegicus) (UniProt P14270+P14646+P14644+P54748); assay: Inhibition of rolipram binding to rat brain at 1 uM; format: tissue-based
[8] = Bioavailability in guinea pig was tested; format: ADME, organism-based, Cavia porcellus; details: in vivo, read-out: Bioavailabiility
[9] = Maximum plsma drug concentration in guinea pig when 3 mg/kg dose was given perorally; format: ADME, organism-based, Cavia porcellus; parameters: dose 3 mg/kg, route oral; details: plasma, po
[10] = AUC tested in guinea pig when 3 mg/kg dose was given perorally; format: ADME, organism-based, Cavia porcellus, Plasma; parameters: dose 3 mg/kg, route oral; details: in vivo, po

Structure (SMILES): CCc1cc2c(C(=O)Nc3cc[n+]([O-])cc3Cl)cnc(OC)c2o1
IC50 [1]: 120 nM | inhibition [2]: 39%

Structure (SMILES): CCc1cc2c(C(=O)Nc3ncncc3C#N)cnc(OC)c2o1
inhibition [3]: inactive | IC50 [1]: 140 nM

Structure (SMILES): CCc1cc2c(C(=O)Nc3cc[n+]([O-])cc3C)cnc(OC)c2o1
IC50 [1]: 120 nM

Structure (SMILES): CCc1cc2c(C(=O)Nc3cc[n+]([O-])cc3OC)cnc(OC)c2o1
inhibition [5]: 21%

Structure (SMILES): CCc1cc2c(C(=O)Nc3c(F)cccc3F)cnc(OC)c2o1
IC50 [1]: 66 nM

Structure (SMILES): CCc1cc2c(C(=O)Nc3c(C)cc(C#N)cc3Cl)cnc(OC)c2o1
IC50 [1]: 230 nM

Continued, values first:

IC50 [1]: 3.7 nM
Structure (SMILES): CCc1cc2c(C(=O)Nc3c(Cl)c[n+]([O-])cc3Cl)cnc(OC(F)F)c2o1

inhibition [4]: inactive | IC50 [1]: 48 nM
Structure (SMILES): COc1ncc(C(=O)Nc2c(Cl)c[n+]([O-])cc2Cl)c2cc(C3(OC)CCN(C(=O)OC(C)(C)C)CC3)oc12

inhibition [4]: inactive | IC50 [1]: 47 nM
Structure (SMILES): COCc1cc2c(C(=O)Nc3c(Cl)c[n+]([O-])cc3Cl)cnc(OC)c2o1

inhibition [6]: 3% | IC50 [1]: 47 nM
Structure (SMILES): COc1ncc(C(=O)Nc2c(Cl)c[n+]([O-])cc2Cl)c2cc(C3CCOCC3)oc12

IC50 [1]: 62 nM
Structure (SMILES): COc1ncc(C(=O)Nc2c(Cl)c[n+]([O-])cc2Cl)c2cc(-c3cccnc3)oc12

inhibition [7]: 61% | inhibition [5]: 22%
Structure (SMILES): CCc1cc2c(C(=O)Nc3c(Cl)c[n+]([O-])cc3Cl)cnc(O)c2o1

IC50 [1]: 23 nM
Structure (SMILES): COc1ncc(C(=O)Nc2c(Cl)c[n+]([O-])cc2Cl)c2cc(C3CCOC3)oc12 (centres undefined)

inhibition [6]: 32% | bioavailability [8]: 54% | Cmax [9]: 1410 ng/mL | AUC [10]: 4942 ng/mL | IC50 [1]: 14 nM
Structure (SMILES): CCc1cc2c(C(=O)Nc3c(Cl)c[n+]([O-])cc3Cl)cnc(OC)c2o1
